This is an account of results in patent publication US10793525B2, “13-cis-RAMBA retinamides that degrade MNKs for treating cancer” (UNIVERSITY OF MARYLAND, BALTIMORE, priority 2014, dated 2020).

Data set [1] deals with MCF-7 human breast cancer cells. The data set can be described thus: MTT cell proliferation assay, MCF-7. Conditions: Homo sapiens, MCF7; MCF-7 cells, MTT, SEM < 10%; read-out: GI50s MCF-7. It counts as cell-based.
For data set [2], the system named is CWR22Rv1 xenograft tumors. The data set can be described thus: CWR22Rv1 anti-tumor efficacy study (xenograft). It counts as in vivo, mice. On the procedure:
All animal studies were performed according to the guidelines and approval of the Animal Care Committee of the University of Maryland School of Medicine, Baltimore (UMB). Female Athymic Nude mice or male SCID (Charles Rivers Laboratories or UMB facilities) at 4-6 weeks of age were maintained in a pathogen-free environment. MDA-MB-231 (10×10^6) cells were subcutaneously implanted into Athymic Nude mice and CWR22Rv1 (1×10^6) cells into male SCID mice. Mice bearing established tumors (˜100 mm^3) were randomized into treatment groups of 6 and dosed with vehicle (40% β-cyclodexdrin in ddH2O), or compounds 20 and 22 (i.p., formulated in 40% β-cyclodexdrin in ddH2O, once daily, 5 days a week for 28 days).
The National Cancer Institute (NCI) criteria^23 were used to determine tumor growth efficacy of our compounds. Thus, percent test or treatment/control (% T/C), defined as the ratio of the median tumor volume for the treated group versus control group, was calculated as % T/C=[(median tumor volume of treated group at day 28)/(median tumor volume of control group at day 28)]×100.

The subject of data set [3] is CWR22Rv1 human prostate carcinoma cells. The data set can be described thus: MTT cell proliferation assay, CWR22Rv1. It counts as cell-based. Conditions: SEM < 10%, read-out: GI50s CWR22Rv1. The source says:
(§1) MCF-7, MDA-MB-231, MDA-MB-468 and SKBR-3 human breast cancer cells and LNCaP, PC-3, and CWR22Rv1 human prostate carcinoma cells (American Type Culture Collection, Manassas, Va., USA) were maintained in RPMI 1640 media (Gibco-Life Technologies, Grand Island, N.Y., USA) supplemented with 10% fetal bovine serum and 1% penicillin/streptomycin. Western blotting was done as mentioned previously,^8, 13b using the following antibodies: AR, Bad, Bax, Bcl-2, eIF4E, Mnk1, Mnk-2, N-cadherin, PARP, peIF4E^ser209 purchased from Cell Signaling Technology, Danvers, Mass., USA. Anti-Mnk2 was purchased from Sigma-Aldrich and normal rabbit IgG, cyclin D1 was from Santa Cruz Biotechnology, CA, USA.
(§2) Cells were plated (2500 cells/well) in 96 well plates and treated with or without specified compounds as described previously.^8a, 12b
(§3) The clinically relevant retinoids, ATRA and 4-HPR and the Mnk inhibitor, cercosporamide were used as comparators in the assays.
(§4) The PC-3 cell line was the least sensitive to all the compounds tested.
Background: Formazan colour is commonly taken as a measure of viable cells.

The subject of data set [4] is MDA-MB-468 human breast cancer cells. The data set can be described thus: MTT cell proliferation assay, MDA-MB-468. It counts as cell-based. Conditions: MDA-MB-468 cells, SEM < 10%, read-out: GI50s MDA-MB-468.
In data set [5] the test system is Mnk1 and 2, peIF4E, eIF4E and cPARP. The data set can be described thus: Western blot of lysates from MCF-7, MDA-MB-231 and MDA-MB-468 cells. It counts as cell-based, human. Conditions: MCF-7, MDA-MB-231, MDA-MB-468 cells, 24 hours.
Text: as §1
As we previously reported, the anti-proliferative effects of the 1st generation MNKDAs in BC cells was due to degradation of Mnk1/2 with subsequent depletion of peIF4E and induction of apoptosis.^8a To determine if these compounds modulate Mnk1/2 and related oncogenic proteins, the inventors performed western blot of lysates from MCF-7, MDA-MB-231 and MDA-MB-468 human breast cancer cells treated with Compounds 16, 20, and 22, or with vehicle (DMSO, negative control), or Compound 6 (positive control). Equal protein concentrations from MCF-7 (FIG. 3A), MDA-MB-231 (FIG. 3B) and MDA-MB-468 (FIG. 3C) cells treated for 24 hours with Compounds 16, 20 and 22 at the various concentrations as indicated and Compound 6 (20 μmol/L) were separated by SDS-PAGE and western blots probed with antibodies to Mnk1 and 2, peIF4E, eIF4E and cPARP. Vehicle treated cells were included as control and all blots were reprobed for GAPDH for loading control.
(In western blotting, separated proteins are transferred to a membrane and probed.)

Data set [6] relates to Mnk-1, peIF4E and their downstream targets. The data set can be described thus: Molecular analysis of MDA-MB-231 tumors. Conditions: MDA-MB-231 tumors from treated mice. It counts as in vivo. The source says:
To assess their in vivo mode of action, we evaluated the effects of Compounds 20 and 22 on Mnk-1, peIF4E and their downstream targets.

For data set [7], the system named is SKBR-3 human breast cancer cells. The data set can be described thus: MTT cell proliferation assay, SKBR-3. It counts as cell-based. Conditions: SK-BR-3, SKBR-3 cells, SEM < 10%, read-out: GI50s SKBR-3.
For another data set, the system named is LNCaP cells. The data set can be described thus: MTT viability of LNCaP cells with AR and/or Mnk1 siRNA knockdown. It counts as cell-based, human. As for the experimental part:
siRNA (100 nM) was transfected into LNCaP cells using Lipofectamine® 2000 Transfection reagent (Invitrogen) as per manufacturer's protocol. Protein silencing was confirmed by immunoblot analysis. For cell growth assay experiments, transfection complex were removed after 18 h, cells were washed twice with PBS and replaced with growth medium. 24 h later drug was added and harvested after 72 h. For Western blot experiment, transfection complexes were washed off after 18 h and replaced with phenol free media for 24 h. Cells were then treated with 20 μM of VNLG-152 for an additional 24 h and cells were lysed using RIPA lysis buffer.^8b, 27 Luciferase assay was conducted in LNCaP cells using the Dual Luciferase kit (Promega) as described earlier.^8b, 13b
To confirm whether AR and Mnk1 are the major anti-cancer targets of these compounds on LNCaP cells, the percentage of cell survival in LNCaP cells was analyzed by MTT assay following transient transfection with AR siRNA and/or Mnk1 siRNA for 18 hours.

The subject of a further data set is PC-3 cells. The data set can be described thus: Wound-healing assay, PC-3 cell migration. It counts as cell-based, human. Conditions: 5 μM, 24 hours. On the procedure:
Wound healing assay and matrigel invasion assay were also conducted as described previously using highly metastatic PC-3 cells following treatment with 5 μM of RRs for 24 h.^8a,26
Based on previous studies with closely related compound,^8 the inhibitory effects of Compounds 16, 20 and 22 on cell migration were evaluated, using the human metastatic PC cell line, PC-3 by wound-healing assay. PC-3 cells (5×10^5 cells/well) were seeded on Boyden chamber, grown to confluence and scratches made at experimental tome zero. The cells were treated with indicated compounds (5 μM each) for 24 hours. Representative photomicrographs of initial and final wounds are shown at 100× magnification. […] At 24 hours after cell monolayers were wounded, control cells had completely filled in the scratched area.

In data set [8] the test system is PC-3 human prostate carcinoma cells. The data set can be described thus: MTT cell proliferation assay, PC-3. Conditions: PC-3 cells, SEM < 10%, read-out: GI50s PC-3. It counts as cell-based.
Text: as §1, §2, §3, §4

[9] abbreviates: CWR22Rv1 xenografts, castrated SCID mice, i.p. 20 mg/kg/day, 5 days per week for 28 days.

pIC50: −log10 of the molar value.

On to `CC1=C(/C=C/C(C)=C/C=C/C(C)=C\C(=O)Nc2cccc(F)c2)C(C)(C)CCC1n1ccnc1` (stereo not drawn) [Compound 20, (2Z,4E,6E,8E)-9-(3-(1H-imidazol-1-yl)-2,6,6-trimethylcyclohex-1-en-1-yl)-N-(3-fluorophenyl)-3,7-dimethylnona-2,4,6,8-tetraenamide], for which the pIC50 in data set [1] is 5.24; in data set [3], 5.69; in data set [4] it was 5.17; in [7] it was 4.77; in [8], 5.25. In addition, the adverse effects entry in [2] (CWR22Rv1 xenograft mice) is “no apparent adverse effects”. Further, in [2] (CWR22Rv1 xenograft mice, vehicle control versus treatment), the body weights entry is “comparable”. Besides, the “% T/C value” in [2] (setting [9]) came out at 38.8%. The “suppression of tumor growth” value in [2] (setting [9]) is reported as 61.2%. Besides, the “expression of total eIF4E” value in data set [5] is “no noticeable effects”. The “expressions of Mnk1, Mnk2 and peIF4E” value in [5] is “significantly and dose-dependently, reduced”. Besides, the “formation of c-PARP (apoptosis)” value in [5] is recorded as “dose-dependent formation of c-PARP”. Moreover, the “Mnk1/2, peIF4E, cyclin D1 and Bcl-2 in tumors” value in [6] is listed as “depletion”. The “pro-apoptotic proteins Bad and Bax in tumors” value in data set [6] was “up-regulation”. Also, the “cell viability, un-transfected LNCaP cells” value with LNCaP cells (5 μM, 72 hours, MTT) was “robust reduction in cell viability”. In addition, in the data set on LNCaP cells (5 μM, compared to siRNA alone treated counterparts), the “cell viability, LNCaP cells harboring AR or Mnk1 knockdown” value was “sensible decrease in cell viability”. Besides, in the data set with LNCaP cells (compared to cells co-treated with Mnk1 and AR siRNA), the “cell viability, LNCaP cells with double knockdown of AR and Mnk1” value is recorded as “did not show any significant decrease in cell viability”. Moreover, the “migration of PC-3 cells” value with PC-3 cells is on record as “significantly inhibited migration”.
